Laboratory results taken from US9320276B2, “N-hetarylmethyl pyrazolylcarboxamides” (BAYER INTELLECTUAL PROPERTY GMBH, priority 2010, dated 2016).

System: Alternaria solani
Test: in vivo preventive test on Alternaria solani (tomato)
Conditions: 500 ppm of active ingredient, evaluated 7 days after inoculation
Description: Solvent: 49 parts by weight of N,N-dimethylformamide Emulsifier: 1 part by weight of Alkylarylpolyglycolether To produce a suitable preparation of active compound, 1 part by weight of active compound is mixed with the stated amounts of solvent and emulsifier, and the concentrate is diluted with water to the desired concentration. To test for preventive activity, young plants are sprayed with the preparation of active compound at the stated rate of application. One day after this treatment, the plants are inoculated with an aqueous spore suspension of Alternaria solani. The plants remain for one day in an incubation cabinet at approximately 22° C. and a relative atmospheric humidity of 100%. Then the plants are placed in an incubation cabinet at approximately 20° C. and a relative atmospheric humidity of 96%. The test is evaluated 7 days after the inoculation. 0% means an efficacy which corresponds to that of the untreated control while an efficacy of 100% means that no disease is observed.

| SMILES | Efficacy [%] |
| --- | --- |
| Cc1ccsc1CN(C(=O)c1c(C(F)F)nn(C)c1F)C1CC1 [Example 40] | 95 |
| Cc1cc(C(C)N(C(=O)c2c(C(F)F)nn(C)c2F)C2CC2)c(C)s1 (stereo not shown) [Example 48] | 95 |
| Cn1nc(C(F)F)c(C(=O)N(Cc2c(Cl)cncc2Cl)C2CC2)c1F [Example 115] | 100 |
| Cc1c(CN(C(=O)c2c(C(F)F)nn(C)c2F)C2CC2)sc2ccccc12 [Example 122] | 95 |
| Cn1nc(C(F)F)c(C(=O)N(Cc2csc3ccccc23)C2CC2)c1F [Example 90] | 95 |

System: Leptosphaeria nodorum
Test: in vivo preventive test on Leptosphaeria nodorum (wheat)
Conditions: 500 ppm of active ingredient, evaluated 7-9 days after inoculation
Description: (§1) Solvent: 49 parts by weight of N,N-dimethylacetamide Emulsifier: 1 part by weight of alkylaryl polyglycol ether To produce a suitable preparation of active compound, 1 part by weight of active compound is mixed with the stated amounts of solvent and emulsifier, and the concentrate is diluted with water to the desired concentration. To test for preventive activity, young plants are sprayed with a preparation of active compound at the stated rate of application. One day after this treatment, the plants are inoculated with an aqueous spore suspension of Leptosphaeria nodorum. The plants remain for 48 hours in an incubation cabinet at 22° C. and a relative atmospheric humidity of 100%. Then the plants are placed in a greenhouse at a temperature of approximately 22° C. and a relative atmospheric humidity of approximately 90%. The test is evaluated 7-9 days after the inoculation. 0% means an efficacy which corresponds to that of the untreated control, while an efficacy of 100% means that no disease is observed.

| SMILES | Efficacy [%] |
| --- | --- |
| Cc1cc(C(C)N(C(=O)c2c(C(F)F)nn(C)c2F)C2CC2)c(C)s1 (stereo not shown) [Example 48] | 100 |
| Cn1nc(C(F)F)c(C(=O)N(Cc2c(Cl)cncc2Cl)C2CC2)c1F [Example 115] | 80 |
| Cc1c(CN(C(=O)c2c(C(F)F)nn(C)c2F)C2CC2)sc2ccccc12 [Example 122] | 100 |
| Cn1nc(C(F)F)c(C(=O)N(Cc2csc3ccccc23)C2CC2)c1F [Example 90] | 100 |

System: Pyrenophora teres
Test: in vivo preventive test on Pyrenophora teres (barley)
Conditions: 500 ppm of active ingredient, evaluated 7-9 days after inoculation
Description: as §1, with “weight of N,N-dimethylformamide Emulsifier: 1” for “weight of N,N-dimethylacetamide Emulsifier: 1”, “sprayed with the preparation of” for “sprayed with a preparation of”, “suspension of Pyrenophora teres. The plants” for “suspension of Leptosphaeria nodorum. The plants”, “of approximately 20° C. and” for “of approximately 22° C. and”, “of approximately 80%. The test” for “of approximately 90%. The test”, “the untreated control while an” for “the untreated control, while an”

| SMILES | Efficacy [%] |
| --- | --- |
| Cc1ccsc1CN(C(=O)c1c(C(F)F)nn(C)c1F)C1CC1 [Example 40] | 100 |
| Cc1cc(C(C)N(C(=O)c2c(C(F)F)nn(C)c2F)C2CC2)c(C)s1 (stereo not shown) [Example 48] | 100 |
| Cn1nc(C(F)F)c(C(=O)N(Cc2c(Cl)cncc2Cl)C2CC2)c1F [Example 115] | 100 |
| Cc1c(CN(C(=O)c2c(C(F)F)nn(C)c2F)C2CC2)sc2ccccc12 [Example 122] | 100 |
| Cn1nc(C(F)F)c(C(=O)N(Cc2csc3ccccc23)C2CC2)c1F [Example 90] | 100 |

System: not listed separately
Test: logP by HPLC on reversed-phase column (EEC Directive 79/831 Annex V.A8)
Format: physicochemical
Conditions: HPLC on reversed-phase column (C 18), 40° C., 0.1% aqueous formic acid and acetonitrile, linear gradient 10% to 90% acetonitrile
Outline: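 Reversed-phase C18 HPLC at 40° C with 0.1% aqueous formic acid/acetonitrile, linear gradient 10% to 90% acetonitrile. LogP obtained from retention time by linear interpolation between successive unbranched alkan-2-ones (3 to 16 carbons) of known logP. Lambda-max taken from UV spectra at 200-400 nm at chromatographic peak maxima.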

| SMILES | logP |
| --- | --- |
| Cn1nc(C(F)F)c(C(=O)N(Cc2c(Cl)cncc2Cl)C2CC2)c1F [Example 115] | 2.54 |
| Cc1c(CN(C(=O)c2c(C(F)F)nn(C)c2F)C2CC2)sc2ccccc12 [Example 122] | 3.64 |
| Cn1nc(C(F)F)c(C(=O)N(Cc2csc3ccccc23)C2CC2)c1F [Example 90] | 3.27 |

Now from value to molecule:

| logP | SMILES |
| --- | --- |
| 2.88 | Cc1ccsc1CN(C(=O)c1c(C(F)F)nn(C)c1F)C1CC1 [Example 40] |
| 3.62 | Cc1cc(C(C)N(C(=O)c2c(C(F)F)nn(C)c2F)C2CC2)c(C)s1 (stereo not shown) [Example 48] |

System: Fusarium nivale (var. majus)
Test: in vivo curative test on Fusarium nivale (wheat)
Conditions: 500 ppm of active ingredient, evaluated 5 days after inoculation
Description: Solvent: 49 parts by weight of N,N-dimethylacetamide Emulsifier: 1 part by weight of alkylaryl polyglycol ether To produce a suitable preparation of active compound, 1 part by weight of active compound or active compound combination is mixed with the stated amounts of solvent and emulsifier, and the concentrate is diluted with water to the desired concentration. To test for curative activity, young plants are slightly injured by using a sandblast and afterwards they are sprayed with a conidia suspension of Fusarium nivale (var. majus) and placed for 24 hours in a greenhouse under a translucent incubation cabinet at a temperature of approximately 10° C. and a relative atmospheric humidity of approximately 100% and are subsequently sprayed with the preparation of active compound at the stated rate of application. After the spray coating has been dried, the plants remain in the greenhouse under translucent incubation cloches at a temperature of approximately 10° C. and a relative atmospheric humidity of approximately 100%. The test is evaluated 5 days after the inoculation. 0% means an efficacy which corresponds to that of the untreated control, while an efficacy of 100% means that no disease is observed.

| SMILES | Efficacy [%] |
| --- | --- |
| Cc1ccsc1CN(C(=O)c1c(C(F)F)nn(C)c1F)C1CC1 [Example 40] | 92 |
| Cc1cc(C(C)N(C(=O)c2c(C(F)F)nn(C)c2F)C2CC2)c(C)s1 (stereo not shown) [Example 48] | 86 |
| Cn1nc(C(F)F)c(C(=O)N(Cc2c(Cl)cncc2Cl)C2CC2)c1F [Example 115] | 71 |
| Cc1c(CN(C(=O)c2c(C(F)F)nn(C)c2F)C2CC2)sc2ccccc12 [Example 122] | 93 |
| Cn1nc(C(F)F)c(C(=O)N(Cc2csc3ccccc23)C2CC2)c1F [Example 90] | 100 |

System: Blumeria graminis fsp. hordei
Test: in vivo preventive test on Blumeria graminis (barley)
Conditions: 500 ppm of active ingredient, evaluated 7 days after inoculation
Description: Solvent: 49 parts by weight of N,N-dimethylacetamide Emulsifier: 1 part by weight of alkylaryl polyglycol ether To produce a suitable preparation of active compound, 1 part by weight of active compound or active compound combination is mixed with the stated amounts of solvent and emulsifier, and the concentrate is diluted with water to the desired concentration. To test for preventive activity, young plants are sprayed with the preparation of active compound or active compound combination at the stated rate of application. After the spray coating has been dried, the plants are dusted with spores of Blumeria graminis fsp. hordei. The plants are placed in the greenhouse at a temperature of approximately 18° C. and a relative atmospheric humidity of approximately 80% to promote the development of mildew pustules. The test is evaluated 7 days after the inoculation. 0% means an efficacy which corresponds to that of the untreated control, while an efficacy of 100% means that no disease is observed.

| SMILES | Efficacy [%] |
| --- | --- |
| Cc1ccsc1CN(C(=O)c1c(C(F)F)nn(C)c1F)C1CC1 [Example 40] | 100 |
| Cc1cc(C(C)N(C(=O)c2c(C(F)F)nn(C)c2F)C2CC2)c(C)s1 (stereo not shown) [Example 48] | 100 |
| Cn1nc(C(F)F)c(C(=O)N(Cc2csc3ccccc23)C2CC2)c1F [Example 90] | 100 |

System: Sphaerotheca fuliginea
Test: in vivo preventive test on Sphaerotheca fuliginea (cucumber)
Conditions: 500 ppm of active ingredient, evaluated 7 days after inoculation
Description: Solvent: 49 parts by weight of N,N-dimethylformamide Emulsifier: 1 part by weight of Alkylarylpolyglycolether To produce a suitable preparation of active compound, 1 part by weight of active compound is mixed with the stated amounts of solvent and emulsifier, and the concentrate is diluted with water to the desired concentration. To test for preventive activity, young plants are sprayed with the preparation of active compound at the stated rate of application. One day after this treatment, the plants are inoculated with an aqueous spore suspension of Sphaerotheca fuliginea. Then the plants are placed in a greenhouse at approximately 23° C. and a relative atmospheric humidity of approximately 70%. The test is evaluated 7 days after the inoculation. 0% means an efficacy which corresponds to that of the untreated control, while an efficacy of 100% means that no disease is observed.

| SMILES | Efficacy [%] |
| --- | --- |
| Cc1ccsc1CN(C(=O)c1c(C(F)F)nn(C)c1F)C1CC1 [Example 40] | 90 |
| Cn1nc(C(F)F)c(C(=O)N(Cc2c(Cl)cncc2Cl)C2CC2)c1F [Example 115] | 83 |

System: Septoria tritici
Test: in vivo preventive test on Septoria tritici (wheat)
Conditions: 500 ppm of active ingredient, evaluated 21 days after inoculation
Description: (§2) Solvent: 49 parts by weight of N,N-dimethylacetamide Emulsifier: 1 part by weight of alkylaryl polyglycol ether To produce a suitable preparation of active compound, 1 part by weight of active compound or active compound combination is mixed with the stated amounts of solvent and emulsifier, and the concentrate is diluted with water to the desired concentration. To test for preventive activity, young plants are sprayed with the preparation of active compound or active compound combination at the stated rate of application. After the spray coating has been dried, the plants are sprayed with a spore suspension of Septoria tritici. The plants remain for 48 hours in an incubation cabinet at approximately 20° C. and a relative atmospheric humidity of approximately 100% and afterwards for 60 hours at approximately 15° C. in a translucent incubation cabinet at a relative atmospheric humidity of approximately 100%. The plants are placed in the greenhouse at a temperature of approximately 15° C. and a relative atmospheric humidity of approximately 80%. The test is evaluated 21 days after the inoculation. 0% means an efficacy which corresponds to that of the untreated control, while an efficacy of 100% means that no disease is observed.

| SMILES | Efficacy [%] |
| --- | --- |
| Cc1ccsc1CN(C(=O)c1c(C(F)F)nn(C)c1F)C1CC1 [Example 40] | 100 |
| Cc1cc(C(C)N(C(=O)c2c(C(F)F)nn(C)c2F)C2CC2)c(C)s1 (stereo not shown) [Example 48] | 100 |
| Cn1nc(C(F)F)c(C(=O)N(Cc2c(Cl)cncc2Cl)C2CC2)c1F [Example 115] | 86 |
| Cc1c(CN(C(=O)c2c(C(F)F)nn(C)c2F)C2CC2)sc2ccccc12 [Example 122] | 100 |
| Cn1nc(C(F)F)c(C(=O)N(Cc2csc3ccccc23)C2CC2)c1F [Example 90] | 100 |

System: Puccinia triticina
Test: in vivo protective test on Puccinia triticina (wheat)
Conditions: 500 ppm of active ingredient, preventive, evaluated 8 days after inoculation
Description: as §2, with “Puccinia triticina.” for “Septoria tritici.”, “approximately” for “approximately 100% and afterwards for 60 hours at approximately 15° C. in a translucent incubation cabinet at a relative atmospheric humidity of approximately”, “20°” for “15°”, “8” for “21”

| SMILES | Efficacy [%] |
| --- | --- |
| Cc1ccsc1CN(C(=O)c1c(C(F)F)nn(C)c1F)C1CC1 [Example 40] | 71 |
| Cc1c(CN(C(=O)c2c(C(F)F)nn(C)c2F)C2CC2)sc2ccccc12 [Example 122] | 100 |
| Cn1nc(C(F)F)c(C(=O)N(Cc2csc3ccccc23)C2CC2)c1F [Example 90] | 88 |
